Each compound was assayed against T1, ligand binding domain of human ROR gamma (Homo sapiens, UniProt P51449) (assay: ROR gamma reporter gene assay (GAL4-RORγ LBD luciferase, Dual-Glo)). Settings: HEK293T cells transfected with pM-ROR gamma, 8 concentrations 3.5 nM to 10.5 μM, 24 h incubation; read-out: result (pIC50, inhibition of RORγ transcriptional activity) (converted).
T1 construct: NM_001001523; expressed in transfected cells; host or cells: HEK293T
T1 sequence (P51449 247-497 isoform P51449-2): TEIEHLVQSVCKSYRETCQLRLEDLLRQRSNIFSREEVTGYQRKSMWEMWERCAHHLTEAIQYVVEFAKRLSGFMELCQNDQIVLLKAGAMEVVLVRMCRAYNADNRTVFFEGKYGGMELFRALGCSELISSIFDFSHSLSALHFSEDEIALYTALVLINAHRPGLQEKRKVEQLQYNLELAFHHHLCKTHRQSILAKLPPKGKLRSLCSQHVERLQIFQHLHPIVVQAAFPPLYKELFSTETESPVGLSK
Format: cell-based
Summary of the method: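 HEK293T cells co-transfected with GAL4-DBD fused to human RORγ LBD (aa 247-497), 5×UAS firefly luciferase reporter and CMV-renilla, in charcoal-stripped serum.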
With O=C(CN(Cc1cc(F)cc(F)c1)C(=O)c1cnn([C@H]2CC[C@H](C(=O)O)CC2)c1C(F)(F)F)c1c(Cl)cc(OC(F)(F)F)cc1Cl [Example 127, trans-4-(4-((2-(2,6-dichloro-4-(trifluoromethoxy)phenyl)-2-oxoethyl)-((3,5-difluorophenyl)methyl)carbamoyl)-5-(trifluoromethyl)pyrazol-1-yl)cyclohexane-1-carboxylic acid] the IC50 was 2.04e+06 pM.
In the case of N#C[C@]1(C(=O)O)CC[C@@H](n2ncc(C(=O)N(CC(=O)c3c(Cl)cncc3Cl)Cc3ccc(F)cc3)c2C(F)(F)F)CC1 [Example 128, trans-4-(4-((2-(3,5-dichloropyridin-4-yl)-2-oxoethyl)-((4-fluorophenyl)methyl)carbamoyl)-5-(trifluoromethyl)pyrazol-1-yl)-1-cyanocyclohexane-1-carboxylic acid], the IC50 is reported as > 1e+07 pM.
N#C[C@]1(C(=O)O)CC[C@H](n2ncc(C(=O)N(CC(=O)c3c(Cl)cncc3Cl)Cc3ccc(F)cc3)c2C(F)(F)F)CC1 [Example 129, trans-4-(4-((2-(3,5-dichloropyridin-4-yl)-2-oxoethyl)-((4-fluorophenyl)methyl)carbamoyl)-5-(trifluoromethyl)pyrazol-1-yl)-1-cyanocyclohexane-1-carboxylic acid] was tested, and the IC50 was 8.71e+06 pM.
For CC1(C)CCC(CN(CC(=O)c2c(Cl)cncc2Cl)C(=O)c2cnn([C@H]3CC[C@H](C(=O)O)CC3)c2C(F)(F)F)CO1 (stereo partly shown) [Example 130], the IC50 was 174000 pM.
In the case of CC(C)(C)[C@H]1C[C@@H](N(CC(=O)c2c(Cl)cncc2Cl)C(=O)c2cnn([C@H]3CC[C@H](C(=O)O)CC3)c2C(F)(F)F)C1 [Example 131, trans-4-(4-((3-tert-butylcyclobutyl)-(2-(3,5-dichloropyridin-4-yl)-2-oxoethyl)carbamoyl)-5-(trifluoromethyl)pyrazol-1-yl)cyclohexane-1-carboxylic acid], the IC50 is reported as 83200 pM.
Compound CC(C)(C)[C@H]1C[C@H](N(CC(=O)c2c(Cl)cncc2Cl)C(=O)c2cnn([C@H]3CC[C@H](C(=O)O)CC3)c2C(F)(F)F)C1 [Example 132, trans-4-(4-((3-tert-butylcyclobutyl)-(2-(3,5-dichloropyridin-4-yl)-2-oxoethyl)carbamoyl)-5-(trifluoromethyl)pyrazol-1-yl)cyclohexane-1-carboxylic acid] has an IC50 of 66100 pM.
Cc1ccnc(C)c1C(=O)CN(Cc1cc(F)cc(F)c1)C(=O)c1cnn([C@H]2CC[C@H](C(=O)O)CC2)c1C(F)(F)F [Example 134, trans-4-(4-((3,5-difiuorophenyl)methyl-(2-(2,4-dimethylpyridin-3-yl)-2-oxoethyl)carbamoyl)-5-(trifluoromethyl)pyrazol-1-yl)cyclohexane-1-carboxylic acid] showed an IC50 of 245000 pM.
O=C(CN(Cc1cc(F)cc(F)c1)C(=O)c1cnn([C@H]2CC[C@H](C(=O)O)CC2)c1Cl)c1c(Cl)cncc1Cl [Example 135, trans-4-(5-chloro-4-((2-(3,5-dichloropyridin-4-yl)-2-oxoethyl)-((3,5-difluorophenyl)methyl)carbamoyl)pyrazol-1-yl)cyclohexane-1-carboxylic acid] showed an IC50 of 3.09e+06 pM.
With O=C(CN(Cc1cc(F)cc(F)c1)C(=O)c1cnn([C@H]2CC[C@H](C(=O)O)CC2)c1C(F)(F)F)c1ccc(C(F)(F)F)cc1Cl [Example 136, trans-4-(4-((2-(2-chloro-4-(trifluoromethyl)phenyl)-2-oxoethyl)-((3,5-difluorophenyl)methyl)carbamoyl)-5-(trifluoromethyl)pyrazol-1-yl)cyclohexane-1-carboxylic acid] the IC50 was 83200 pM.
In the case of Cc1cc(Cl)c(C(=O)CN(Cc2cc(F)cc(F)c2)C(=O)c2cnn([C@H]3CC[C@H](C(=O)O)CC3)c2C(F)(F)F)c(Cl)c1 [Example 137, trans-4-(4-((2-(2,6-dichloro-4-methylphenyl)-2-oxoethyl)-((3,5-difluorophenyl)methyl)carbamoyl)-5-(trifluoromethyl)pyrazol-1-yl)cyclohexane-1-carboxylic acid], the IC50 is reported as 4790 pM.

Reference: patent US9365522B2, “Pyrazole amide derivative” (AMGEN INC., priority 2015, dated 2016)
